Results reported in US10738041B2, “Ferroportin inhibitors” (Vifor (International) AG, priority 2015, dated 2020).

Assays:
ferroportin (Fpn) = molecular target: T1, ferroportin (Fpn) (Mus musculus, UniProt Q9JHI9); assay: Ferroportin Ubiquitination and Degradation (immunoprecipitation, Western blot); assay type: cell-based; set-up: key: + comparable to hepcidin; − no effect; +/− intermediate effect; conditions: J774 cells; visual inspection of Western blots; concentration per compound ca. 10-fold J774 IC50
T1 construct: host or cells: J774 mouse macrophage cell line, Fe(III)-NTA induced
T1 sequence (Q9JHI9 1-570): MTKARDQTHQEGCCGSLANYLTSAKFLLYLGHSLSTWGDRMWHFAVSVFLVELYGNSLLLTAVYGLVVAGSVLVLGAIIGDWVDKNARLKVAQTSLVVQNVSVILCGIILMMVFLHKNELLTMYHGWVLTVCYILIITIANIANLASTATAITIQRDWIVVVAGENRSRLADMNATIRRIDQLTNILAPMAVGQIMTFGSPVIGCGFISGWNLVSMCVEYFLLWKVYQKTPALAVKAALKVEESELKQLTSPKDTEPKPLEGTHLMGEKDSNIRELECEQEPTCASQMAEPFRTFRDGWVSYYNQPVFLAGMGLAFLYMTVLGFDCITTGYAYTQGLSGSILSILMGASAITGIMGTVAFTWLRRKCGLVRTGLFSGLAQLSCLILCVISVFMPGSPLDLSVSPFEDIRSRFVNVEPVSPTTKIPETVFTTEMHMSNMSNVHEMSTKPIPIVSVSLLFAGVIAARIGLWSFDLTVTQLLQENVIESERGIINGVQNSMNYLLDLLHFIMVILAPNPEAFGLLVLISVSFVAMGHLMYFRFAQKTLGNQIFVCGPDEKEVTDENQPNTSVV
Experimental: Exposure of cells expressing ferroportin (Fpn) to hepcidin is known to trigger ubiquitination aid subsequent internalization and degradation of Fpn (Qiao, 2012). The potential of Fpn inhibitors to induce Fpn ubiquitination and degradation was investigated with an immunoprecipitation assay using the J774 mouse macrophage cell line which expresses Fpn upon treatment with iron.
Cells were incubated with synthetic human hepcidin (Bachem, Cat. H-5926) or Fpn inhibitor compounds for 10 min or 120 min. Cells were washed and lysed witi ice-cold lysis buffer (Pierce, Life Technoligies, Cat. 87787) including 1× HALT protease inhibitor cocktail (Life technologies, Cat. 78429) and 10 mM iodoacetamide (Sigma, Cat. 16125) to stabilize ubiquitinated proteins. Immunoprecipitation was done using the Pierce Classic IP Kit (Life Technologies, Cat. 26146) following the manufacturer's protocol. Briefly, 2 mg protein in 1.25 ml IP lysis buffer was incubated by mixing for 1 h at 4° C. with control agarose beads to pre-clear the lysate and reduce nonspecific signal. Unbound lysate was then incubated overnight with 12 μg per reaction of the affinity purified anti-Fpn antibody F308 that was raised against a GST fusion protein of mouse Fpn amino acids 224308. Immune complexes were captured by pipetting 14 μl settled Pierce Protein A/G Plus Agarose beads (Life Technologies, Cat. 20423) per reaction and the slurry was incubated for 1.5 h at 4° C. with gentle end-over-end mixing. The beads were washed and immune complexes were eluted directly with 75 μl SDS NuPAGE LDS sample buffer (Life Technologies, Cat. NP0007) containing DTT (Life Technologies, Cat. NP0009). After immunoprecipitation samples were analyzed by Western blotting using a rabbit anti-mouse MTP1 antiserum (Alpha Diagnostic International, Cat. MTP11-A) and a mouse anti-mono- and polyubiquitinylated conjugates monoclonal antibody (Enzo Lifesciences, Cat. BML-PW8810) for detection of ferroportin and ubiquitin, respectively. Mouse monoclonal anti-rabbit IgG light chain (Abcam, Cat. ab99697) and anti-mouse IgG H&L (Abcam, Cat. ab6789) HRP conjugates were used as secondary antibodies.
A selection of eleven Fpn inhibitors were tested in this assay and compared to hepcidin.
J774 cells were incubated overnight with Fe(III)-NTA to induce expression of Fpn. […] Mock treated cells were harvested after 120 min (Control).

Hbb th3/+ mice = assay: Improvement of anemia, ineffective erythropoiesis and iron overload in a mouse model of β-thalassemia intermedia; assay type: in vivo; conditions: for Correction of anemia at day 20-48 (hemoglobin, difference to vehicle control) / Decrease in 58Fe spleen iron content / Decrease in blood reticulocyte counts / Decrease in leukocyte counts / Decrease in serum erythropoietin / Increase in blood erythrocyte counts / Increase in hematocrit / Prevention of liver 58Fe loading: 27 days (127) or 46 days (40); for Decrease in serum iron: Hbb th3/+ mice, % change to vehicle control
Experimental: The efficacy of Fpn inhibitors was investigated using a mouse model of transfusion-independent β-thalassemia. Mice with heterozygous deletion of β1 and β2 globin genes (called Hbb th3/+ mice) develop transfusion-independent anemia, ineffective erythropoiesis, splenomegaly and secondary iron overload in spleen, liver and kidneys. […] Hbb th3/+ mice were dosed twice daily with either compound at 20 or 60 mg/kg or with methylcellulose (10 ml/kg, Sigma, Cat. 274429) as a vehicle. Between both doses mice had access to drinking water supplemented with 1 mM ^58Fe(II)-sulfate (Vifor Pharma, Batch No. ROR 3096) and 10 mM ascorbic acid (Sigma, Cat. 795437) for 6 h. […] Water without ^58Fe(II)-Sulfate and ascorbic acid was provided during the remaining 18 h. Dosing of Fpn inhibitors or vehicle followed by exposure to iron-containing water was repeated for 20 to 46 days in individual experiments.
Additional hematologic parameters were measured in terminal blood using automated blood cell analyzer.
The inefficient erythropoiesis of Hbb th3/+ mice causes excessive proliferation of erythroid precursors in spleen, leading to splenomegaly.
Elevated erythropoietin levels in Hbb th3/+ mice hduced overexpression of erythroferrone, an erythroid regulator hormone known to suppress hepcidin (Kautz L. et al, Nat. Genet., 2014). […] Erythroferrone is produced by erythrocyte precursors proliferating massively in spleens of Hbb th3/+ mice as a consequence of extramedullar erythropoiesis.
Increased iron demand due to inefficient erythropoiesis and chronically low hepcidin levels in patients with thalassemia causes organ iron loading and associated morbidities, such as hepatocellular carcinoma and heart failure (Rivella S. Haematologica, 2015). Hbb th3/+ mice absorb excessive amounts of iron as a consequence of inadequately low hepcidin levels relative to the high iron content in liver, spleen and kidney and increased ferroportin expression in duodenum (Gardenghi S., Blood, 2007).
Additionally, reactive oxygen species (ROS) were detected in bone marrow cells using a fluorescent indicator, CM-H2DCFDA (Thermo Fisher Scientific, Cat. C6827).

SMILES: O=C(NCc1ncccc1F)c1coc(CCNCc2nc3ccccc3[nH]2)n1 [Example 126]
- Fpn Degradation (120 min.) (ferroportin (Fpn)): +
- Fpn Ubiquitination (10 min.) (ferroportin (Fpn)): +/−

SMILES: O=C(NCc1ncccc1F)c1coc(CCNCCc2nc3ccccc3[nH]2)n1 [Example 127]
- Decrease in RDW (Hbb th3/+ mice; 20 mg/kg twice daily, 27 days (127)): 19%
- Correction of anemia at day 20-48 (hemoglobin, difference to vehicle control) (Hbb th3/+ mice; 20 mg/kg twice daily): 12 g/L
- Decrease in 58Fe spleen iron content (Hbb th3/+ mice; 20 mg/kg twice daily): 43%
- Decrease in blood reticulocyte counts (Hbb th3/+ mice; 20 mg/kg twice daily): 16%
- Decrease in leukocyte counts (Hbb th3/+ mice; 20 mg/kg twice daily): 46%
- Decrease in serum erythropoietin (Hbb th3/+ mice; 20 mg/kg twice daily): 32%
- Increase in blood erythrocyte counts (Hbb th3/+ mice; 20 mg/kg twice daily): 0%
- Increase in hematocrit (Hbb th3/+ mice; 20 mg/kg twice daily): 3%
- Prevention of liver 58Fe loading (Hbb th3/+ mice; 20 mg/kg twice daily): 39%
- Decrease in serum iron (Hbb th3/+ mice; 20 mg/kg): 68%
- Decrease in RDW (Hbb th3/+ mice; 60 mg/kg twice daily, 27 days (127)): 25%
- Correction of anemia at day 20-48 (hemoglobin, difference to vehicle control) (Hbb th3/+ mice; 60 mg/kg twice daily): 20 g/L
- Decrease in 58Fe spleen iron content (Hbb th3/+ mice; 60 mg/kg twice daily): 68%
- Decrease in blood reticulocyte counts (Hbb th3/+ mice; 60 mg/kg twice daily): 61%
- Decrease in leukocyte counts (Hbb th3/+ mice; 60 mg/kg twice daily): 66%
- Decrease in serum erythropoietin (Hbb th3/+ mice; 60 mg/kg twice daily): 33%
- Increase in blood erythrocyte counts (Hbb th3/+ mice; 60 mg/kg twice daily): 36%
- Increase in hematocrit (Hbb th3/+ mice; 60 mg/kg twice daily): 20%
- Prevention of liver 58Fe loading (Hbb th3/+ mice; 60 mg/kg twice daily): 59%
- Decrease in serum iron (Hbb th3/+ mice; 60 mg/kg): 81%
- Decreased in ROS in bone marrow erythrocytes (Hbb th3/+ mice; second value of the cell (60 mg/kg) twice daily, 27 days (127)): NA/75%

SMILES: CC[C@H](C)[C@@H]1NC(=O)[C@@H](NC(=O)[C@@H](NC(=O)[C@@H]2CCCN2C(=O)[C@H](Cc2ccccc2)NC(=O)[C@H](Cc2c[nH]cn2)NC(=O)[C@@H](NC(=O)[C@@H](N)CC(=O)O)[C@@H](C)O)[C@@H](C)CC)CSSC[C@@H](C(=O)N[C@@H](CCCCN)C(=O)N[C@H](C(=O)O)[C@@H](C)O)NC(=O)[C@@H]2CSSC[C@@H]3NC(=O)[C@@H]4CSSC[C@H](NC(=O)[C@H](Cc5ccccc5)NC1=O)C(=O)N[C@@H](CSSC[C@H](NC(=O)[C@H](CCCCN)NC(=O)[C@H](CO)NC(=O)[C@H](CCCNC(=N)N)NC(=O)[C@H](Cc1c[nH]cn1)NC3=O)C(=O)NCC(=O)N[C@@H](CCSC)C(=O)N2)C(=O)NCC(=O)N4 [hepcidin, reference compound]
- Fpn Degradation (120 min.) (ferroportin (Fpn)): +
- Fpn Ubiquitination (10 min.) (ferroportin (Fpn)): +
